Experimental data from patent US4554355A, “Heterocyclic compounds as antiallergic agents” (American Home Products Corporation, priority 1984, dated 1985).
Like-named read-outs stand apart in the source and are kept apart here.

Tests used:
[1] = test system: synthesis of 5-HETE and LTB4 by rat glycogen-elicited polymorphonuclear leukocytes; test: inhibition of the synthesis of 5-HETE and LTB4 by rat glycogen-elicited polymorphonuclear leukocytes; format: cell-based, rat (female Wistar); conditions: rat PMN, A23187 10 μM; for IC50: Leukocyte, 10 min preincubation
Description: This is especially true with respect to 5,12-diHETE, which is also denoted as LTB4 [see Ford-Hitchinson, J. Roy. Soc. Med., 74, 831 (1981)]. The assay of this Example measures the ability of the compounds of the invention to inhibit the synthesis of 5-HETE and LTB4 by rat glycogen-elicited polymorphonuclear leukocytes.
The assay is carried out as follows:
Peritoneal PMN are obtained from female Wistar rats (150-250 g) that received an i.p. injection of 6% glycogen (10 ml). After 24 hours, rats are killed by CO2 asphyxiation and peritoneal cells are harvested by peritoneal lavage using Ca^++ and Mg^++ free Hanks' balanced salt solution (HBSS). The peritoneal exudate is centrifuged at 400 g for 10 minutes. After centrifugation, the lavaged fluid is removed and the cell pellet is resuspended in HBSS containing Ca^++ and Mg^++ and 10 mM L-cysteine at a concentration of 2×10^7 cells/ml. To 1 ml portions of cell suspension, test drugs or vehicle are added and incubated at 37° C. for 10 minutes. Following this preincubation, the calcium ionophore (10 μM), A23187, is added together with 0.5 μCi[^14 C]arachidonic acid and further incubated for 10 minutes. The reaction is stopped by the addition of ice cold water (3 ml) and acidifying to pH 3.5. Lipoxygenase products are then extracted twice into diethyl ether. The pooled ether extracts are evaporated to dryness under nitrogen and the residue is redissolved in a small volume of methanol and spotted on aluminum backed pre-coated thin layer chromatographic plates. The samples are then co-chromatographed with authentic reference 5-HETE, 12-HETE and 5,12-diHETE in the solvent system--hexane:ether:acetic acid (50:50:3). After chromatography, the areas associated with 5-HETE and 5,12-diHETE standards are identified by autoradiography, cut out and quantitated by liquid scintillation.
Results are expressed as % inhibition of [^14 C]5-HETE and [^14 C]LTB4 (5,12-HETE) synthesis. [formula]
Testing compounds of the invention in this assay and using the antioxidant 3-amino-1-[m-(trifluoromethyl)phenyl]-2-pyrazoline (BW755C) as a standard, the following results are obtained.

[2] = test system: LTD4 induced bronchospasm; test: in vivo inhibition of bronchospasm induced in guinea pigs by exogenously administered leukotriene LTD4; set-up: species or system guinea pig (male Hartley strain); conditions: guinea pig, 50 mg/kg intraduodenal, 10 minutes before induction
Description: The assay of this Example measures the in vivo ability of the compounds of the invention to inhibit the bronchospasm induced in guinea pigs by the exogenously administered leukotrienes C4 and/or D4. This assay is essentially a measure of the SRS-A antagonist properties of the compounds tested.
This assay is carried out as follows:
Male Hartley strain guinea pigs (350-600 g) are anesthetized with pentobarbital sodium (50 mg/kg, i.p.). The jugular vein is cannulated for injection of drugs and the carotid artery for monitoring blood pressure. The trachea is cannulated for artificial ventilation by a miniature Starling pump and for indirect measurement of respiratory volume changes as described infra. Additional pentobarbital sodium (15 mg/kg, i.v.) is administered to arrest spontaneous respiration. Submaximal bronchoconstrictor responses are established in control animals by varying the dose-levels of leukotriene. Intravenous dose-levels for LTC4 range from 1 to 2 μg/kg and for LTD4 the range is from 0.3 to 1 μg/kg. The aerosol bronchoprovocation dose for LTC4 is generated from 1.6 μM solution and for LTD4 from a 2.0 μM solution.
Test drugs are administered either intravenously, intraduodenally, by aerosol or orally at 1 or 10 minutes before induction of bronchospasm by administration of either LTC4 or LTD4 at the predetermined dose-levels. Aerosols of soluble drugs or leukotrienes are produced in-line for 10 seconds only by actuation of an ultrasonic nebulizer (Monaghan). Aerosolized drug dosage is expressed in terms of solution concentration and by a fixed aerosol exposure time (approximately 10 seconds). Control animals receive saline in place of drug.
Respiratory volume changes are determined by a calibrated piston whose travel is recorded, via a linear transducer, on a Beckman Dynograph recorder. Maximal bronchoconstrictor volume is determined by clamping off the trachea at the end of the experiment. Overflow volumes at 1, 3 and 5 minutes are obtained from the recorded charts.
The overflow volume at 1, 3 and 5 minutes is expressed as a percentage of maximal bronchoconstriction. Combined group values are used from each of these time intervals to determine the inhibitory effect of drugs. [formula] Students t-test for unpaired data is used to determine statistical significance. Dose response curves are generated and ED50 doses are interpolated from the regression lines.
Results for a compound of the invention in this assay, using LTD4 for induction of bronchospasm, is given below: […]

Row | Compound | % Inhibition at 100 μm, 5-HETE ([1]; [14C]5-HETE synthesis) [%] | % Inhibition at 100 μm, LTB4 ([1]; [14C]LTB4 synthesis) [%] | % Inhibition Overflow Volume at 1 min. [2] [%] | % Inhibition Overflow Volume at 3 min. [2] [%] | % Inhibition Overflow Volume at 5 min. [2] [%] | IC50 ([1]; [14C]5-HETE synthesis, read-out: 50% Inhibitory Concentration (IC50), 5-HETE) [µM] | IC50 ([1]; [14C]LTB4 synthesis, read-out: 50% Inhibitory Concentration (IC50), LTB4) [µM]
1 | COC(=O)C1CC(=O)N(c2cccc(OCc3nc4ccccc4o3)c2)C1 (centres unmarked) [Example 2B, N-[3-[(2-benzoxazolyl)methoxy]phenyl]pyrrolidin-2-on-4-carboxylic acid, methyl ester] | 87.20 | 82.80 | 26 | 12 | 15 |  | 
2 | NC1=NN(c2cccc(C(F)(F)F)c2)CC1 [BW755C, 3-amino-1-[m-(trifluoromethyl)phenyl]-2-pyrazoline, reference compound] |  |  |  |  |  | 43 | 30
3 | COC(=O)C1CC(=O)N(c2cccc(OCc3nc4ccccc4n3C)c2)C1 (centres unmarked) [Example 2A, N-[3-[(1-methyl-2-benzimidazolyl)methoxy]phenyl]pyrrolidin-2-on-4-carboxylic acid, methyl ester] | 34.60 | 32.30 | 56 | 20 | 18 |  | 
4 | COC(=O)C1CC(=O)N(c2cccc(OCc3nc4ccccc4s3)c2)C1 (centres unmarked) [Example 1, N-[3-[(2-Benzthiazolyl)methoxy]phenyl]pyrrolidin-2-on-4-carboxylic acid, methyl ester] | 94.30 | 84.50 | 72 | 66 | 68 |  | 
